Each structure is given as a SMILES string. Calls of active or inactive are those of the source.

The source of these data is ChEMBL document CHEMBL1201862, “PubChem BioAssay data set” (2004).

The target of assay [1] is Acyl-homoserine lactone acylase PvdQ (Pseudomonas aeruginosa (strain LESB58), UniProt Q9I194). Put plainly: P. aeruginosa PvdQ acylase inhibitors, dose response, biochemical, fluorescence, plate reader and imaging, cherry-picks (AID 493231).
The target of assay [2] is T1, Bcl-2-like protein 10 (Homo sapiens, UniProt Q9HD36).
T1 sequence (Q9HD36 whole entry): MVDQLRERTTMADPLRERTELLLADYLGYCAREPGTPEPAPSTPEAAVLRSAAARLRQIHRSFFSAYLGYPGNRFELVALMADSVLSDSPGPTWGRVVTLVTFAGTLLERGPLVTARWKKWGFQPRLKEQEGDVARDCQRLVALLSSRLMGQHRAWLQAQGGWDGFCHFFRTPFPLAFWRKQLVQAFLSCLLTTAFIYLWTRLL
Put plainly: Biochemical TR3 FP assay of Bcl-B inhibitor potency, EC50 (AID 1243). In kind it is functional.

The nature of assay [3]: cells. In kind it is functional, cell-based.
The target of assay [4] is T2, Heat shock factor protein 1 (Mus musculus, UniProt P38532).
T2 sequence (P38532 whole entry): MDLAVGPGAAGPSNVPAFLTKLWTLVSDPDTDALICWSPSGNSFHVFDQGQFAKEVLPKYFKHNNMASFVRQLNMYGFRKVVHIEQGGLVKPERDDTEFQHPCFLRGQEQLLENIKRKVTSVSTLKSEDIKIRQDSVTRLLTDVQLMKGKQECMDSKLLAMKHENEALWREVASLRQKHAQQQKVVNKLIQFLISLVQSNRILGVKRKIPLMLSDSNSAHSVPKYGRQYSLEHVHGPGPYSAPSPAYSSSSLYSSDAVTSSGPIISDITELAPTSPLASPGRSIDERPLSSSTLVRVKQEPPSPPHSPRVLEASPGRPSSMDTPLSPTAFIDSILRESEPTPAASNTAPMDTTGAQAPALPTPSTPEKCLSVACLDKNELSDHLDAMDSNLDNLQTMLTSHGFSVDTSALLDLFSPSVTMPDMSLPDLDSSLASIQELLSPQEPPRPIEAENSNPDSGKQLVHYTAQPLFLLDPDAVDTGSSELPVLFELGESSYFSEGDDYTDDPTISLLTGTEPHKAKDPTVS
Put plainly: inhibition of MG132-induced HSE-luciferase signal, confirmation, cell-based, NIH3T3, luminescence, dose retest (AID 2382).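 Note: NIH3T3 fibroblasts with HSF1-driven luciferase reporter stressed by proteasome inhibitor MG132; luminescence from HSF1-driven luciferase expression after 8 hours of MG132 stress.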 In kind it is functional.

A short description of assay [5]: HepG2 cell cytotoxicity, dose response, cytotoxicity control for Shn3 inhibitor project, CellTiter-Glo, cherry-picked (AID 624134). In kind it is functional, cell-based.
Assay [6] in a line: Luminescence-based counterscreen assay for KLF5 inhibitors: dose response cell-based high throughput screening assay to identify cytotoxic compounds using the IEC-6 intestinal epithelial cell line. [Related pubchem assays: 1700 (Primary screen.), 1834 (Confirmation screen.), 1858 (Summary AID.), 1905 (Counterscreen.)]. In kind it is functional. On the technique in general: Counterscreens check selectivity or assay interference.

Assay [7] in a line: inhibitors of firefly luciferase expression or activity, dose response, H4 neuroglioma cells, luminescence (AID 1990). In kind it is functional, cell-based.
Assay [8] in a line: inhibitors of SNCA 5'UTR-driven reporter translation, confirmation, H4 neuroglioma cells, luminescence (AID 1988). The format is functional, cell-based.
Assay [9] is described as follows: Shn3 3'UTR reporter inhibitors, dose response, cell-based, Clone20 osteoblasts, firefly luciferase, cherry-picked (AID 624132).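 Note: firefly luciferase luminescence from reporter carrying the Shn3 3'UTR in osteoblasts.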 The format is functional.
Assay [10] can be described thus: Luminescence Cell-Based Dose Response HTS to Identify Inhibitors of 5'UTR Stem-Loop Driven Prion Protein mRNA Translation in H4 Neuroglioblastoma Cells. [Related pubchem assays: 1827 (Project Summary), 1813 (Primary HTS)]. In kind it is functional.
Assay [11] is described as follows: inhibitors of SNCA 5'UTR-driven translation, confirmation, luminescence, H4 neuroglioblastoma cells, dose confirmation (AID 2454).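 Note: H4 neuroglioblastoma cells carrying an alpha-synuclein 5'UTR luciferase reporter; potency for inhibition of the luciferase signal.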 In kind it is functional, cell-based.
Assay [12] concerns Vero. Put plainly: cells. In kind it is functional. The note with it: Chlorocebus sabaeus.
A short description of assay [13]: Luminescence Cell-Based Dose Confirmation HTS to Identify Inhibitors of Platelet Dense Granule Release. [Related pubchem assays: 1663 (Primary HTS), 1678 (Summary of Project)]. The format is functional.
The target of assay [14] is Luciferin 4-monooxygenase (Photinus pyralis, UniProt P08659). Put plainly: firefly luciferase enzyme inhibitors, dose response, biochemical, luminescence (AID 1891).
Assay [15] concerns Vero. Description: cells. In kind it is functional, cell-based. The note with it: Chlorocebus sabaeus.
Assay [16] can be described thus: luciferase reporter signal reduction – luminescence, H4-C neuroglioblastoma cells, dose response (AID 2458).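 Note: H4 neuroglioblastoma cells stably carrying a luciferase reporter gene fusion.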 The format is functional, cell-based. (In general: A reporter such as luciferase makes a cellular process visible.)
Assay [17] has as its target T3, Insulin-degrading enzyme (Homo sapiens, UniProt P14735).
T3 sequence (P14735 whole entry): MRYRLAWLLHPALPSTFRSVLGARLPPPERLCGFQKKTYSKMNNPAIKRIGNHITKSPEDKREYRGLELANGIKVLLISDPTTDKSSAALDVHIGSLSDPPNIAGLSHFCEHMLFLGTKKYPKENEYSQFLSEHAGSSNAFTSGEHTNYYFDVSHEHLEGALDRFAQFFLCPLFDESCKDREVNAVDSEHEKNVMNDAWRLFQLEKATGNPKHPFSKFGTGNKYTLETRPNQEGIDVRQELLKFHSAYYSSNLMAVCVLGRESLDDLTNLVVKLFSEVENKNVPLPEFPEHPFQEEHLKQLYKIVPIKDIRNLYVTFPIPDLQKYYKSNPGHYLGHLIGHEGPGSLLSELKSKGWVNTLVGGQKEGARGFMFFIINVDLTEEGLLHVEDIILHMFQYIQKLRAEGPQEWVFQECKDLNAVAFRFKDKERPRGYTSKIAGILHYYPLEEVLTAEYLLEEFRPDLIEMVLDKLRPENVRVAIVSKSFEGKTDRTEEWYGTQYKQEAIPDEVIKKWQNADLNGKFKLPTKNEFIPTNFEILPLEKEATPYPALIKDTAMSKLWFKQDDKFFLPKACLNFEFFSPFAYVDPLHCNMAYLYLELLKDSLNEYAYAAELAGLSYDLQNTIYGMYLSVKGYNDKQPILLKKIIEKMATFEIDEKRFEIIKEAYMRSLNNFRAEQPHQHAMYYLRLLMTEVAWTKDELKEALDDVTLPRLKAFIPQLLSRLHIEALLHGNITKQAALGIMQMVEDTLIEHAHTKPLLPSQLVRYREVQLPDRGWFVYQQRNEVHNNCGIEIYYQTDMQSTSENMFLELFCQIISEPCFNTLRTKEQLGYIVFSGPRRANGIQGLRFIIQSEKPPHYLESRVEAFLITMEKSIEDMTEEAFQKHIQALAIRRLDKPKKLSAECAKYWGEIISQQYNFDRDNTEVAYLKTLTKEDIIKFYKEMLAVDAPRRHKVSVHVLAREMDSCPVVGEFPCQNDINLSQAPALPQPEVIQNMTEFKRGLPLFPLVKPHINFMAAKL
Description: Dose Response: Fluorescence polarization-based cell-based high throughput dose response assay for inhibitors of insulin-degrading enzyme (IDE). [Related pubchem assays: 434962 (Primary screen (IDE inhibitors in singlicate)), 449730 (Counterscreen (Cytotoxicity in triplicate)), 435028 (Confirmation (IDE inhibitors in triplicate)), 434984 (Summary …. The format is functional.

A short description of assay [18]: Counterscreen for IDE inhibitors: Luminescence-based cell-based high throughput dose response assay to identify compounds that are cytotoxic to HEK cells. [Related pubchem assays: 434962 (Primary screen (IDE inhibitors in singlicate)), 449730 (Counterscreen (Cytotoxicity in triplicate)), 435028 (Confirmation (IDE inhibitors in triplicate)) …. The format is functional. The note with it: HEK293.

Assay [19] deals with Beta-galactosidase (Escherichia coli, UniProt Q8VNN2). Put plainly: beta-galactosidase enzyme inhibitors and activators, dose response, artefact control for CCR6 antagonist project, biochemical, E. coli enzyme, set 3 (AID 504712). The format is functional.
Assay [20] deals with T4, C-C chemokine receptor type 6 (Homo sapiens, UniProt P51684).
T4 sequence (P51684 whole entry): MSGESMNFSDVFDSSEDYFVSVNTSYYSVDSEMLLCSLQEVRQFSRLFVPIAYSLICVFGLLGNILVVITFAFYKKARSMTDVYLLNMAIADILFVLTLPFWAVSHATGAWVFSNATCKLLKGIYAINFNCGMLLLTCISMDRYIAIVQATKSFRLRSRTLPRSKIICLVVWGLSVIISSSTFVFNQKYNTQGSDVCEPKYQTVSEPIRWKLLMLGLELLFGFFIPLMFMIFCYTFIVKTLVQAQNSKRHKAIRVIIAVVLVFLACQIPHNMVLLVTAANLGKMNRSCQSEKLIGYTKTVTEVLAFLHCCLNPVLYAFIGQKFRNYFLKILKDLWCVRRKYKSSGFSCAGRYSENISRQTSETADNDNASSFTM
Put plainly: CCR6 receptor antagonists, dose response, cell-based, luminescent beta-arrestin readout (AID 504728). In kind it is functional.

One may read the AC50 as the midpoint of the concentration-response curve, whichever way the signal moves. Take `Cc1cc(NC(=O)c2cc(Cl)ccc2Cl)no1`: the AC50 in assay [1] is > 100 µM (inactive).

The term EC50 denotes the concentration at which the effect is half-maximal. With `C(=N\c1ccc(/N=C/c2ccccn2)cc1)/c1ccccn1`, the EC50 in assay [2] was 4.39 µM (active).

In general, IC50 refers to the concentration that inhibits the measured activity by half. Usually CC50 stands for the concentration giving 50% cytotoxicity. Take `CN1CCN(c2ccc(-c3ccc4ccccc4n3)cc2)CC1`: the EC50 was 0.123 µM (active) in assay [3]; < 0.16 µM (active) in assay [4]; < 0.195 µM (active) in [7]; < 0.1 µM (active) in [8]; < 0.1 µM (active) in assay [10]; 0.039 µM (active) in [11]. Further, the results for the concentration for a half-maximal effect (EC50) in [13], in [14] and in assay [16] were 1.66 µM (active), 0.953 µM (active) and 0.134 µM (active), respectively. Moreover, the results for the AC50 in assay [5] and in assay [9] were 22.6 µM (active) and 2.73 µM (active), respectively. Also, the IC50 in [6] is 26.6 µM (not active); in [15], > 25 µM (active). Further, in assay [12], the CC50 is > 25 µM (active).

On to `Cc1cccc(N2CCN(C(=O)c3cccc(N4C(=O)C5CC=CC(C)C5C4=O)c3)CC2)c1C` (centres undefined), for which the values for the IC50 in [17] and in [18] were 4 µM (active) and 23.8 µM (not active), respectively.

In the case of `O=C(O)C1Nc2ccc3ccccc3c2C2C=CCC12` (centres undefined), in assay [2], the EC50 is 7.15 µM (active).

For the compound `COc1ccc(N2C(=O)/C(=C\NNc3nc(C)cc(C)n3)c3ccccc3C2=O)cc1OC`, the IC50 in assay [19] was > 66.6 µM (inactive); in assay [20] it was 0.594 µM (active). For the same compound, the EC50 was 11.8 µM (active) in assay [7], 9.51 µM (active) in assay [8] and 11.8 µM (active) in assay [10].
